Measured values published in patent US20050256171A1, “Pyrrolidine derivatives as tryptase inhibitors” (Altana Pharma A G, priority 2002, published 2005).
Structures can show the parent of a compound that is named as a salt.

Biological target: human tryptase
Assay: Inhibition of human tryptase (apparent dissociation constant, chromogenic substrate tos-Gly-Pro-Arg-pNA)
Format: biochemical
Settings: pKiapp = -log Kiapp (mol/l); in the presence of substrate; heparin 0.1-50 μg/ml
Text: The documented pathophysiological effects of mast cell tryptase are brought about directly by the enzymatic activity of the protease. Accordingly, they are reduced or blocked by inhibitors which inhibit the enzymatic activity of tryptase. A suitable measure of the affinity of a reversible inhibitor for the target protease is the equilibrium dissociation constant Ki of the enzyme/inhibitor complex. This value of Ki can be determined via the influence of the inhibitor on the tryptase-induced cleavage of a chromogenic peptide-p-nitroanilide substrate or of a fluorogenic peptide-aminomethylcoumarin substrate.
The dissociation constants for the tryptase/inhibitor complexes are determined under equilibrium conditions in accordance with the general proposals of Bieth (Bieth J G, Pathophysiological Interpretation of kinetic constants of protease inhibitors, Bull. Europ. Physiopath. Resp. 16:183-195,1980) and the methods of Sommerhoff et al. (Sommerhoff C P et al., A Kazal-type Inhibitor of human mast cell tryptase: Isolation from the medical leech Hirudo medicinalis, characterization, and sequence analysis, Biol. Chem. Hoppe-Seyler 375: 685-694, 1994).
Human tryptase is prepared pure from lung tissue or is prepared by recombination; the specific activity of the protease which has been determined by titration is normally more than 85% of the theoretical value. Constant amounts of the tryptase are incubated in the presence of heparin (0.1-50 μg/ml) to stabilize the protease with increasing amounts of the inhibitors. After equilibrium has been reached between the reactants, the remaining enzymic activity is determined after addition of the peptide-p-nitroanilide substrate tos-Gly-Pro-Arg-pNA, whose cleavage is followed at 405 nm for 3 min. Alternatively, the remaining enzymatic activity can also be determined using fluorogenic substrates. The apparent dissociation constants Klapp (i.e. in the presence of substrate) are then found by nonlinear regression by fitting the enzyme rates to the general equation for reversible inhibitors (Morrison J F, Kinetics of the reversible inhibition of enzyme catalysed reactions by tight-binding inhibitors, Biochim. Biophys. Acta 185, 269-286, 1969): Vl/V0=1−{Et+It+Klapp−[(Et+It+Klapp)^2−4EtIt]^1/2}/2Et
In this, Vl and V0 are the rates respectively in the presence and absence of the inhibitor and Et and It are the concentrations of tryptase and of the inhibitor.
The apparent dissociation constants found for the compounds of the invention are evident from the following table A, in which the numbers of the compounds correspond to the numbers of the compounds in the examples [pKlapp=−logKlapp(mol/l)].

Compound	pKiapp
COC(=O)Cc1cc(C#CCOC(=O)NCc2ccc(N)nc2)cc(C#CCOC(=O)NC2CC(C(=O)OC)N(C(=O)CCc3cccc(CN)c3)C2)c1 (stereo not shown) [Compound 3, dihydrochloride]	7.80
COC(=O)Cc1cc(C#CCOC(=O)NCc2ccc(N)nc2)cc(C#CCOC(=O)NC2CC(C(=O)OC)N(C(=O)CCc3ccc(CN)cc3)C2)c1 (stereo not shown) [Compound 4, dihydrochloride]	6.57
COC(=O)Cc1cc(C#CCOC(=O)NCc2ccnc(N)c2)cc(C#CCOC(=O)NC2CC(C(=O)OC)N(C(=O)CCc3ccc(CN)cc3)C2)c1 (stereo not shown) [Compound 5, dihydrochloride]	6.00
COC(=O)Cc1cc(C#CCOC(=O)NCc2ccnc(N)c2)cc(C#CCOC(=O)NC2CC(C(=O)OC)N(C(=O)CCc3cccc(CN)c3)C2)c1 (stereo not shown) [Compound 6, dihydrochloride]	7.19
